# Results published in patent publication US8012991B2, “Pyridoindolone derivatives substituted in the 3-position by a phenyl, their preparation and their application in therapeutics” (Sanofi-Aventis, priority 2002, dated 2011).
row,Compound,melting point
1,"COc1ccc2c(c1)c1cc(-c3ccc(Cl)cc3Cl)c(=O)n(C)c1n2C [Compound 21, 3-(2,4-Dichlorophenyl)-6-methoxy-1,9-dimethyl-1,9-dihydro-2H-pyrido[2,3-b]indol-2-one]",130 °C
2,"Cc1ccc2c(c1)c1cc(-c3ccc(Cl)cc3Cl)c(=O)n(C)c1n2C [Compound 2, 3-(2,4-Dichlorophenyl)-1,6,9-trimethyl-1,9-dihydro-2H-pyrido[2,3-b]indol-2-one]",170 °C
3,"Cc1cc(C)cc(-c2cc3c4cc(C)ccc4n(C)c3n(C)c2=O)c1 [Compound 1, 3-(3,5-Dimethylphenyl)-1,6,9-trimethyl-1,9-dihydro-2H-pyrido[2,3-b]indol-2-one]",210 °C
